The record followed here is ChEMBL document CHEMBL1201862, “PubChem BioAssay data set” (2004).

Test systems include DMS-273; KM-20L2; XF498; HOP-18; M19-MEL; RXF 631; T47D; Hs-578T; MDA-N.
Assay in all cases: DTP human tumour cell line panel, 48 h

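Tested at 5 concentrations; 48 h exposure; 96-well plates; endpoints linearly interpolated, else capped at highest concentration. GI50: concentration for 50% inhibition of growth.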 The source made the active and inactive calls. Rule as the data show it: active = GI50 up to about 1.1 µM and inactive = higher.

A word on the GI50: it is the concentration giving 50% growth inhibition. Consider `Cc1nc(N)nn1C1OCC(O)C(O)C1O` (configuration not stated), for which the GI50 in the assay on DMS-273, with KM-20L2 and in the assay on XF498 was > 100 µM (inactive) each time.

Take `CC(=O)c1ccc2c(c1)c1c(C)c3c[n+](C)ccc3c(C)c1n2C`: the GI50 in the assay with DMS-273 was 2.39 µM (inactive); with KM-20L2 it was 17.1 µM (inactive); in the assay on HOP-18, 17.2 µM (inactive); in the assay with M19-MEL, 4.79 µM (inactive); in the assay with XF498, 2.53 µM (inactive).

Take `NC(=O)c1csc(CCCCCCc2nc(C(N)=O)cs2)n1`: the GI50 in the assay with DMS-273 is > 100 µM (inactive); with RXF 631, > 100 µM (inactive); in the assay on KM-20L2, > 100 µM (inactive); in the assay with HOP-18, > 100 µM (inactive); in the assay with M19-MEL, 18.7 µM (inactive).

For the molecule `CC1NOC(=O)C1/N=N/c1ccccc1Cl` (configuration not stated), the GI50 in the assay with RXF 631 was 37.1 µM (inactive); with KM-20L2 it was 68.4 µM (inactive); in the assay on HOP-18, 35 µM (inactive); in the assay with M19-MEL, 23 µM (inactive); in the assay with XF498, 27.9 µM (inactive).

On to `CN(NC1OC(CO)C(O)C(O)C1O)c1ccccc1` (configuration not stated), for which the GI50 in the assay on DMS-273 is > 100 µM (inactive); with KM-20L2, > 100 µM (inactive); with HOP-18 it was > 100 µM (inactive); with M19-MEL, > 100 µM (inactive); in the assay on XF498 it was 16.4 µM (inactive).

For `CNC(C)Cc1ccc(O)cc1` (configuration not stated), the GI50 with DMS-273, with RXF 631, in the assay on KM-20L2, in the assay with HOP-18 and with XF498 was > 100 µM (inactive) in each case.

Regarding `C1=CC(=NN=P(c2ccccc2)(c2ccccc2)c2ccccc2)C=C1`, the GI50 in the assay with DMS-273, with KM-20L2, with M19-MEL and with XF498 was > 100 µM (inactive) each time.

Turning to `Oc1cccc2nc3cc(CN4CCOCC4)c(CN4CCOCC4)cc3nc12`, the GI50 with DMS-273 is 54.7 µM (inactive); in the assay with RXF 631 it was 56.4 µM (inactive); with KM-20L2, 48.9 µM (inactive); with HOP-18, 59.7 µM (inactive); with M19-MEL, 25.9 µM (inactive); with XF498 it was > 100 µM (inactive).

On to `O=C1C(=O)N(c2cc(Cl)ccc2Cl)C(=O)C(=O)C1c1nc2ccccc2o1`, for which the GI50 with DMS-273 was > 100 µM (inactive); with RXF 631, > 100 µM (inactive); in the assay with KM-20L2 it was > 100 µM (inactive); with HOP-18 it was 63.1 µM (inactive); in the assay on M19-MEL, > 100 µM (inactive); in the assay on XF498, > 100 µM (inactive).

Consider `COc1ccc(C2=CC3CCC2C3)cc1` (configuration not stated), for which the GI50 in the assay on DMS-273, in the assay with HOP-18 and in the assay on XF498 was > 100 µM (inactive) throughout.

In the case of `C/C(=C\c1ccccc1)C(O)C(=O)c1nc2ccc(Cl)cc2nc1O` (configuration not stated), the GI50 in the assay with DMS-273 was > 100 µM (inactive); in the assay on KM-20L2 it was > 100 µM (inactive); in the assay on M19-MEL it was > 100 µM (inactive); in the assay with XF498 it was 92 µM (inactive).

Take `N=c1oc2cc(O)c(O)cc2cc1C(N)=O`: the GI50 in the assay on DMS-273, with RXF 631, in the assay with KM-20L2, in the assay on M19-MEL and with XF498 was > 100 µM (inactive) each time.

Regarding `O=C1c2ccccc2C(=O)N1CCn1nc(-c2ccccc2)cc(-c2ccccc2)c1=O`, the GI50 with DMS-273 is 49.5 µM (inactive); in the assay on RXF 631 it was 27.7 µM (inactive); in the assay on KM-20L2, > 100 µM (inactive); in the assay with HOP-18, 42.6 µM (inactive); in the assay with M19-MEL, 69.3 µM (inactive).

On to `Nc1ccc(/N=N/c2ccc(/C=C/c3ccc(/N=N/c4ccc(N)c5ccc(S(=O)(=O)O)cc45)cc3S(=O)(=O)O)c(S(=O)(=O)O)c2)c2cc(S(=O)(=O)O)ccc12`, for which the GI50 was > 88.1 µM (inactive) in the assay with DMS-273; > 100 µM (inactive) in the assay on KM-20L2; > 100 µM (inactive) with HOP-18; > 100 µM (inactive) in the assay on M19-MEL; > 62.2 µM (inactive) in the assay on XF498.

With `COc1cc([C@@H]2c3cc4c(cc3[C@@H](NC(=O)c3cccc(N)c3)C3COC(=O)[C@@H]32)OCO4)cc(OC)c1O` (some centres not stated), the GI50 with DMS-273 was 0.117 µM (active); in the assay on RXF 631, 0.412 µM (active); in the assay with KM-20L2, 2.97 µM (inactive); in the assay with M19-MEL, 3.41 µM (inactive); in the assay on XF498, 1.11 µM (active).

Turning to `CCCCCCCCCCCCCCCCCCOP(=O)([O-])OC1CC[N+](C)(C)CC1` [PERIFOSINE], the GI50 with DMS-273 is 2.86 µM (inactive); in the assay with T47D, 17.9 µM (inactive); with KM-20L2 it was 2.24 µM (inactive); with Hs-578T it was 13 µM (inactive); in the assay with MDA-N it was 12.4 µM (inactive); in the assay on M19-MEL, 4.01 µM (inactive). Besides, the GI50 in the assay with XF498 is 15.7 µM (inactive).

Take `CC(=O)NNc1nc(C)c(C(=O)NNC(=O)C(=O)Nc2ccc(Cl)cc2)s1`: the GI50 in the assay with KM-20L2, in the assay on M19-MEL and with XF498 was > 100 µM (inactive) throughout.

Turning to `O=C(O)C1Cc2[nH]c3ccccc3c2C2CCCC12` (configuration not stated), the GI50 in the assay on DMS-273, in the assay with KM-20L2, in the assay with M19-MEL and in the assay on XF498 was > 100 µM (inactive) throughout.

On to `C=C1C(=O)OCC2C(C(=O)O)=CC3C(C)C(C)=CC123` (configuration not stated), for which the GI50 is 18.5 µM (inactive) with DMS-273; 11.9 µM (inactive) with KM-20L2; 12.2 µM (inactive) in the assay with HOP-18; 14.7 µM (inactive) in the assay on M19-MEL; 12.5 µM (inactive) in the assay with XF498.

As to `C[N+](C)(C)CC1CCc2ccccc2C1=O` (configuration not stated), the GI50 was 2.16 µM (inactive) with DMS-273; 6.53 µM (inactive) with T47D; 19.6 µM (inactive) in the assay with KM-20L2; 13.7 µM (inactive) with Hs-578T; 5.86 µM (inactive) in the assay on MDA-N; 16 µM (inactive) in the assay on M19-MEL. Moreover, the GI50 with XF498 was 2.39 µM (inactive).

Consider `CC1C=C(OC(=O)c2ccccc2)C(=O)C(n2cc(F)c(=O)n(C(=O)c3ccccc3)c2=O)O1` (configuration not stated), for which the GI50 with DMS-273 was 37.4 µM (inactive); in the assay on RXF 631, 52 µM (inactive); in the assay on KM-20L2 it was 32.1 µM (inactive); in the assay with HOP-18 it was > 100 µM (inactive); in the assay on M19-MEL, 39.3 µM (inactive); in the assay on XF498 it was 21.8 µM (inactive).

On to `COc1ccc(C)cc1C1CCC(=O)O1` (configuration not stated), for which the GI50 is > 100 µM (inactive) in the assay on DMS-273; > 100 µM (inactive) in the assay with KM-20L2; > 100 µM (inactive) in the assay with HOP-18; > 100 µM (inactive) with M19-MEL; 63.8 µM (inactive) in the assay with XF498.

For the molecule `O=C(/C=C/c1ccccc1O)c1cccs1`, the GI50 is > 100 µM (inactive) in the assay with DMS-273; > 100 µM (inactive) with RXF 631; > 100 µM (inactive) with KM-20L2; 57.7 µM (inactive) with HOP-18; > 100 µM (inactive) with M19-MEL; > 100 µM (inactive) in the assay on XF498.

As for `Cc1nc(-c2nc([N+](=O)[O-])c([N+](=O)[O-])[nH]2)cs1`, the GI50 in the assay with DMS-273, in the assay with RXF 631, with KM-20L2, in the assay on M19-MEL and in the assay with XF498 was > 100 µM (inactive) each time.

On to `CN(C)CC(CC1=C(CC(CN(C)C)N(C)C)CCC1)N(C)C` (configuration not stated), for which the GI50 with DMS-273, with KM-20L2, in the assay on HOP-18, with M19-MEL and with XF498 was > 100 µM (inactive) each time.

Turning to `CN(Cc1cnc2nc(N)nc(N)c2n1)c1ccc(C(=O)NC(CCC(=O)NCCC(P(=O)(O)O)P(=O)(O)O)C(=O)O)cc1` (configuration not stated), the GI50 was > 67.9 µM (inactive) in the assay on T47D, > 100 µM (inactive) with Hs-578T and 8.55 µM (inactive) with MDA-N.

As to `Cc1cc(O)c(C(C)C)cc1C(=S)Nc1ccc(Cl)cc1`, the figures for the GI50 in the assay on T47D, in the assay on Hs-578T and with MDA-N were 11.6 µM (inactive), 9.1 µM (inactive) and 11.4 µM (inactive), respectively.

As for `COc1cccc(-c2nccc3c(OCc4ccccc4)c(OC)c(OC)cc23)c1`, the GI50 with DMS-273 was 27.2 µM (inactive); with KM-20L2, > 100 µM (inactive); in the assay on M19-MEL, > 100 µM (inactive); in the assay with XF498, > 100 µM (inactive).

Consider `O=C1c2cc3c(cc2[C@@H]2C(O)[C@H]4O[C@H]4C4CCN1C42)OCO3` (some centres not stated), for which the GI50 with DMS-273, with KM-20L2 and with XF498 was > 37.5 µM (inactive) throughout.

Regarding `CN(C)C(=O)/C=C/c1c[nH]c(=O)[nH]c1=O`, the GI50 in the assay on DMS-273, in the assay with KM-20L2 and with HOP-18 was > 500 µM (inactive) in each case.

Turning to `c1ccc(N2N=C(c3ccco3)CC2c2ccco2)cc1` (configuration not stated), the GI50 in the assay with DMS-273, in the assay with KM-20L2, in the assay with M19-MEL and with XF498 was > 100 µM (inactive) each time.

Turning to `O=C(c1ccccc1)c1c(CC(O)c2cccnc2)n(C(=O)c2ccccc2)c2ccccc12` (configuration not stated), the GI50 in the assay on DMS-273 was 28.2 µM (inactive); with KM-20L2, 21.3 µM (inactive); in the assay on M19-MEL, 19.7 µM (inactive); in the assay on XF498, 13.6 µM (inactive).

As for `CCC1CCN/C(=N/S(=O)(=O)c2cc(C)c(Cl)cc2S)N1` (configuration not stated), the GI50 in the assay with T47D was 26.8 µM (inactive); in the assay with Hs-578T, 28.4 µM (inactive); with MDA-N it was 33 µM (inactive).

In the case of `CC1(C)[C@@H](Cn2nnc3c(N)ncnc32)CC[C@@]1(C)CO`, the GI50 in the assay with T47D, in the assay on Hs-578T and in the assay on MDA-N was > 100 µM (inactive) in each case.

In the case of `CN(C)/C(=N\C#N)N(Cc1ccccc1)Cc1ccccc1`, the GI50 in the assay with DMS-273, with KM-20L2, in the assay with HOP-18 and in the assay on M19-MEL was > 100 µM (inactive) throughout.

In the case of `CCOC(=O)C(C)(C)C(O)C(C)C` (configuration not stated), the GI50 with T47D, in the assay on Hs-578T and in the assay on MDA-N was > 100 µM (inactive) throughout.

For `CN1N=C(c2ccncc2)OC1c1cccc(F)c1` (configuration not stated), the GI50 in the assay on T47D, in the assay with Hs-578T and in the assay on MDA-N was > 100 µM (inactive) in each case.

For the molecule `COP(=O)(O)C(N)Cc1c[nH]c2ccccc12` (configuration not stated), the GI50 in the assay with T47D, in the assay on Hs-578T and in the assay on MDA-N was > 100 µM (inactive) in each case.
